From patent publication US8921382B2, “Thiazolo[5,4-d] pyrimidines and their use as agrochemicals” (Dow AgroSciences, LLC., priority 2010, dated 2014)

Assays:
Caenorhabditis elegans = conditions: Application rate 10 micrograms per milliliter agar; evaluated after 24 h at 20° C.
Description: The activity of the compounds against Caenorhabditis elegans was determined by dissolving compounds in DMSO, then applying them to petri dishes containing Nematode Growth Medium agar to a final concentration of 10 micrograms (μg) compound per milliliter agar. Escherichia coli bacteria were grown on the plates to provide a food source for the larvae of Caenorhabditis elegans. The bacteria were heat-killed at 65° C. before compounds were added to the plates.
The plates with compound and heat-killed bacteria were infested with 10 microliter (μL) drops containing eggs from wild-type Caenorhabditis elegans worms. Adult worms were dissolved in potassium hydroxide (KOH) and bleach and washed in Ringers solution to generate the egg suspension. Each compound was screened with approximately 400 eggs, divided between two petri dishes. Egg hatching was evaluated after 24 h at 20° C. Mortality was averaged over the two plates.

Septoria tritici = assay: Septoria Blotch of Wheat foliar spray test, inoculated one day after treatment; assay type: in vivo; conditions: Zymoseptoria tritici, wheat plants, read-out: Activity against Fungal Diseases SEPTTR (percent disease control); for pest or weed control at 200 ppm: applied to foliage at 200 ppm
Description: (§1) Fungicide activity data are the level (in percent) at which the given disease was controlled when the given compound was applied to the foliage of the plants at 200 ppm. In a few cases (noted in the table) the compound was applied to the plants at 25 ppm or 3 ppm. The plants were inoculated with the fungus one day after treatment. ***=80-100% control; **=50-79% control; *=0-49% control. […] The activity of the compounds as effective fungicides was determined by applying the compounds to plants and observing control of fungal disease. […] All plants were inoculated with spores of the fungus the day after treatment, then incubated in an environment conducive to disease development. Disease severity was evaluated 4 to 25 days (d) later, depending on the speed of disease development. The following experiments were performed in the laboratory to determine the fungicidal efficacy of the compounds of the invention. […] Each pot contained 3-10 seedlings. These plants were sprayed until wet with the formulated test compound. On the following day, the leaves were inoculated with an aqueous spore suspension of Septoria tritici and the plants were kept in high humidity (one day in a dark dew chamber followed by two days in a lighted dew chamber) to permit spores to germinate and infect the leaf. The plants were then transferred to a greenhouse until disease developed on untreated control plants. […] The effectiveness of the test compounds at controlling disease when sprayed on leaves was determined by assessing the severity of disease on treated plants, then converting the severity to percent control based on the level of disease on untreated, inoculated plants.

[1] = test system: Puccinia recondita tritici; assay: Leaf Rust of Wheat foliar spray test, inoculated one day after treatment; assay type: in vivo; conditions: applied to foliage at 200 ppm, wheat plants, read-out: Activity against Fungal Diseases PUCCRT (percent disease control)
Description: as §1, with “3-8” for “3-10”, “compounds.” for “compound.”, “Puccinia recondita” for “Septoria”, “overnight” for “(one day in a dark dew chamber followed by two days in a lighted dew chamber)”

[2] = test system: Pseudoperonospora cubensis; assay: Cucumber Downy Mildew foliar spray test, inoculated one day after treatment; assay type: in vivo; conditions: applied to foliage at 200 ppm, cucumber plants, read-out: Activity against Fungal Diseases PSPECU (percent disease control)
Description: Fungicide activity data are the level (in percent) at which the given disease was controlled when the given compound was applied to the foliage of the plants at 200 ppm. In a few cases (noted in the table) the compound was applied to the plants at 25 ppm or 3 ppm. The plants were inoculated with the fungus one day after treatment. ***=80-100% control; **=50-79% control; *=0-49% control. […] The activity of the compounds as effective fungicides was determined by applying the compounds to plants and observing control of fungal disease. […] All plants were inoculated with spores of the fungus the day after treatment, then incubated in an environment conducive to disease development. Disease severity was evaluated 4 to 25 days (d) later, depending on the speed of disease development. The following experiments were performed in the laboratory to determine the fungicidal efficacy of the compounds of the invention. Cucumber Downy Mildew (causal agent Pseudoperonospora cubensis; Bayer code […]): Cucumber plants (variety 'Bush Champion' or 'Bush Pickle Hybrid') were grown from seed in a soil-less peat-based potting mixture (Metromix) until the first true leaf was 20-80% expanded. Each pot contained 1 seedling. These plants were sprayed until wet with the formulated test compound. On the following day, the leaves were inoculated with an aqueous suspension of downy mildew sporangia and the plants were kept in high humidity for one day to permit sporangia to germinate and infect the leaf. The plants were then incubated in a growth chamber until disease developed on untreated control plants. […] The effectiveness of the test compounds at controlling disease when sprayed on leaves was determined by assessing the severity of disease on treated plants, then converting the severity to percent control based on the level of disease on untreated, inoculated plants.

Pyricularia oryzae = assay: whole plant or invertebrate; assay type: in vivo; conditions: foliar, read-out: Activity against Fungal Diseases PYRIOR (percent disease control)

Row | Compound | melting point [°C] | Percent mortality (Caenorhabditis elegans) [%] | pest or weed control at 25 ppm (Septoria tritici; Tested at 25 ppm) [%] | pest or weed control at 200 ppm [1] [%] | pest or weed control at 200 ppm [2] [%] | pest or weed control at 200 ppm (Pyricularia oryzae) [%] | pest or weed control at 200 ppm (Septoria tritici) [%]
1 | COc1cc(CCNc2ncnc3scnc23)ccc1O [Compound 12, 2-methoxy-4-[2-(thiazolo[5,4-d]pyrimidin-7-ylamino)-ethyl]-phenol] | 151 to 154 | – | – | – | – | – | –
2 | ivermectin | – | 95 | – | – | – | – | –
3 | COc1cc(CCNc2ncnc3scnc23)ccc1Oc1ccc(C(F)(F)F)cc1F [Compound 30, {2-[4-(2-fluoro-4-trifluoromethylphenoxy)-3-methoxyphenyl]-ethyl}-thiazolo[5,4-d]pyrimidin-7-ylamine] | – | – | 80 to 100 | 80 to 100 | 80 to 100 | 80 to 100 | –
4 | Cc1cc(CCNc2ncnc3scnc23)ccc1Oc1nc(C(F)(F)F)c(Cl)s1 [Compound 46, {2-[4-(5-chloro-4-trifluoromethylthiazol-2-yloxy)-3-methylphenyl]-ethyl}-thiazolo[5,4-d]pyrimidin-7-ylamine] | – | – | – | 80 to 100 | 80 to 100 | 80 to 100 | 80 to 100
5 | Fc1cnc(C(F)(F)F)c(F)c1Oc1ccc(CCNc2ncnc3scnc23)cc1 [Compound 33, {2-[4-(3,5-difluoro-2-trifluoromethylpyridin-4-yloxy)-phenyl]-ethyl}-thiazolo[5,4-d]pyrimidin-7-ylamine] | – | – | – | 80 to 100 | 80 to 100 | 80 to 100 | 80 to 100
6 | Cc1cc(Oc2cc(C(F)(F)F)ccn2)ccc1CCNc1ncnc2scnc12 [Compound 59, {2-[2-methyl-4-(4-trifluoromethylpyridin-2-yloxy)-phenyl]-ethyl}-thiazolo[5,4-d]pyrimidin-7-ylamine] | – | – | – | 80 to 100 | 80 to 100 | 80 to 100 | 80 to 100
7 | COc1cc(CCNc2ncnc3scnc23)ccc1Oc1cc(C(F)(F)F)cc[n+]1[O-] [Compound 42, {2-[3-methoxy-4-(1-oxy-4-trifluoromethylpyridin-2-yloxy)-phenyl]-ethyl}-thiazolo[5,4-d]pyrimidin-7-ylamine] | – | – | – | 80 to 100 | 80 to 100 | 80 to 100 | 80 to 100
8 | Cc1cc(CCNc2ncnc3scnc23)ccc1Oc1cc(C(F)(F)F)ccn1 [Compound 23, {2-[3-methyl-4-(4-trifluoromethylpyridin-2-yloxy)-phenyl]-ethyl}-thiazolo[5,4-d]pyrimidin-7-ylamine] | – | – | – | 80 to 100 | 80 to 100 | 80 to 100 | 80 to 100
9 | COC(=O)c1cnc(Oc2ccc(CCNc3ncnc4scnc34)cc2)cc1C(F)(F)F [Compound 16, 6-{4-[2-(thiazolo[5,4-d]pyrimidin-7-ylamino)-ethyl]-phenoxy}-4-trifluoromethyl-nicotinic acid methyl ester] | – | – | – | 80 to 100 | 80 to 100 | 50 to 79 | 50 to 79
10 | Cc1cc(Oc2cc(C(F)(F)F)ccn2)ccc1OCCNc1ncnc2scnc12 [Compound 9, {2-[2-methyl-4-(4-trifluoromethylpyridin-2-yloxy)-phenoxy]-ethyl}-thiazolo[5,4-d]pyrimidin-7-ylamine] | – | – | – | 80 to 100 | 80 to 100 | 80 to 100 | 80 to 100
11 | FC(F)(F)c1cc(Oc2ccc(CCNc3ncnc4scnc34)cc2)ccn1 [Compound 40, thiazolo[5,4-d]pyrimidin-7-yl-{2-[4-(2-trifluoromethylpyridin-4-yloxy)-phenyl]-ethyl}-amine] | – | – | – | 80 to 100 | 80 to 100 | 80 to 100 | 80 to 100
12 | CC(Nc1ncnc2scnc12)c1ccc(Oc2cc(C(F)(F)F)ccn2)cc1 (stereo not drawn) [Compound 35, thiazolo[5,4-d]pyrimidin-7-yl-{1-[4-(4-trifluoromethylpyridin-2-yloxy)-phenyl]-ethyl}-amine] | – | – | – | 80 to 100 | 80 to 100 | 80 to 100 | 80 to 100
